# Test results as given in ChEMBL document CHEMBL1140714, “In search of novel agents for therapy of tropical diseases and human immunodeficiency virus” (J Med Chem, 2008).
# The source made the active and inactive calls. No cut-off for these calls is given here.
# Test system: Staphylococcus aureus
# Assay: Antibacterial activity against Staphylococcus aureus assessed as inhibition of biofilm formation
# Type: functional, organism-based
# Details: not given
row,SMILES,Activity
1,CC[C@@H]1CC2(C[C@H](CC)N1)C(=O)N(Cc1ccccc1)C(=O)N2c1ccccc1 (stereo partly specified),inactive
2,C[C@@H]1CC2(C[C@H](C)N1)C(=O)NC(=O)N2c1ccccc1 (stereo partly specified),inactive
3,COC(=O)C1C(=O)C(C(=O)OC)[C@H](c2ccccn2)N(CCCO)[C@@H]1c1ccccn1 (stereo partly specified),inactive
4,CC[C@@H]1CC2(C[C@H](CC)N1)C(=O)N(CCc1ccccc1)C(=O)N2c1ccccc1 (stereo partly specified),inactive
5,C[C@@H]1CC2(C[C@H](C)N1)C(=O)N(CCO)C(=O)N2Cc1ccccc1 (stereo partly specified),inactive
6,COC(=O)C1=C(c2ccccn2)N(Cc2ccc(Cl)cc2)C(c2ccccn2)CC1=O (stereo unspecified),inactive
7,COC(=O)C1=C(c2ccccn2)N(Cc2ccccc2)C(c2ccccn2)CC1=O (stereo unspecified),inactive
8,Cl.Clc1cccc(Cl)c1CO/N=C/C1CCN(CCCc2ccccc2)CC1,inactive
9,COC(=O)C1C(=O)C(C(=O)OC)[C@H](c2ccccn2)N(CCCC(=O)O)[C@@H]1c1ccccn1 (stereo partly specified),inactive
10,COC(=O)C1C(=O)C(C(=O)OC)[C@H](c2cccc([N+](=O)[O-])c2)N(Cc2ccccc2)[C@@H]1c1cccc([N+](=O)[O-])c1 (stereo partly specified),inactive
11,CC[C@@H]1CC2(C[C@H](CC)N1Cc1ccccc1)C(=O)NC(=O)N2c1ccccc1 (stereo partly specified),inactive
12,C=CCN1[C@@H](c2ccccn2)C(C(=O)OC)=C(O)C[C@H]1c1ccccn1,inactive

# Test system: Plasmodium falciparum
# Assay: Antiplasmodial activity against Plasmodium falciparum NF54 after 72 hrs
# Type: functional, organism-based
# Details: NF54, 72 h
row,IC50 [µM],SMILES
1,8.29,Cl.Clc1cccc(Cl)c1CO/N=C/C1CCN(CCCc2ccccc2)CC1

# Test system: Plasmodium falciparum
# Assay: Antiplasmodial activity against Plasmodium falciparum NF54 after 24 hrs
# Type: functional, organism-based
# Details: NF54, 24 h
row,IC50 [µM],SMILES
1,18,COC(=O)C1=C(c2ccccn2)N(Cc2ccc(Cl)cc2)C(c2ccccn2)CC1=O (stereo unspecified)
2,4.7,COC(=O)C1=C(c2ccccn2)N(Cc2ccccc2)C(c2ccccn2)CC1=O (stereo unspecified)
3,11.8,Cl.Clc1cccc(Cl)c1CO/N=C/C1CCN(CCCc2ccccc2)CC1
4,1.4,C=CCN1[C@@H](c2ccccn2)C(C(=O)OC)=C(O)C[C@H]1c1ccccn1

# Test system: Trypanosoma brucei brucei
# Assay: Antitrypanosomal activity against Trypanosoma brucei brucei TC221
# Type: functional
# Details: read-out: ED50 (the source's name)
row,SMILES,EC50 [µM]
1,CC[C@@H]1CC2(C[C@H](CC)N1)C(=O)N(Cc1ccccc1)C(=O)N2c1ccccc1 (stereo partly specified),20.3
2,C[C@@H]1CC2(C[C@H](C)N1)C(=O)NC(=O)N2c1ccccc1 (stereo partly specified),> 100
3,CC[C@@H]1CC2(C[C@H](CC)N1)C(=O)N(CCc1ccccc1)C(=O)N2c1ccccc1 (stereo partly specified),18.1
4,C[C@@H]1CC2(C[C@H](C)N1)C(=O)N(CCO)C(=O)N2Cc1ccccc1 (stereo partly specified),> 100
5,COC(=O)C1C(=O)C(C(=O)OC)[C@H](c2ccccn2)N(CCCC(=O)O)[C@@H]1c1ccccn1 (stereo partly specified),19.3
6,CC[C@@H]1CC2(C[C@H](CC)N1Cc1ccccc1)C(=O)NC(=O)N2c1ccccc1 (stereo partly specified),31

# Further lines, results first:
row,EC50 [µM],SMILES
1,18.3,COC(=O)C1C(=O)C(C(=O)OC)[C@H](c2ccccn2)N(CCCO)[C@@H]1c1ccccn1 (stereo partly specified)
2,> 100,COC(=O)C1=C(c2ccccn2)N(Cc2ccccc2)C(c2ccccn2)CC1=O (stereo unspecified)

# Test system: Leishmania major
# Assay: Antileishmanial activity against Leishmania major MHOM/IL/81/FE/BNI infected in BALB/c mouse
# Type: functional
# Details: not given
row,SMILES,ED50 [µM]
1,C[C@@H]1CC2(C[C@H](C)N1)C(=O)NC(=O)N2c1ccccc1 (stereo partly specified),>100
2,COC(=O)C1C(=O)C(C(=O)OC)[C@H](c2ccccn2)N(CCCO)[C@@H]1c1ccccn1 (stereo partly specified),>100
3,CC[C@@H]1CC2(C[C@H](CC)N1)C(=O)N(CCc1ccccc1)C(=O)N2c1ccccc1 (stereo partly specified),41.1
4,C[C@@H]1CC2(C[C@H](C)N1)C(=O)N(CCO)C(=O)N2Cc1ccccc1 (stereo partly specified),>100
5,Cl.Clc1cccc(Cl)c1CO/N=C/C1CCN(CCCc2ccccc2)CC1,30.72
6,COC(=O)C1C(=O)C(C(=O)OC)[C@H](c2ccccn2)N(CCCC(=O)O)[C@@H]1c1ccccn1 (stereo partly specified),>100
7,COC(=O)C1C(=O)C(C(=O)OC)[C@H](c2cccc([N+](=O)[O-])c2)N(Cc2ccccc2)[C@@H]1c1cccc([N+](=O)[O-])c1 (stereo partly specified),>100
8,CC[C@@H]1CC2(C[C@H](CC)N1Cc1ccccc1)C(=O)NC(=O)N2c1ccccc1 (stereo partly specified),>100
9,C=CCN1[C@@H](c2ccccn2)C(C(=O)OC)=C(O)C[C@H]1c1ccccn1,50

# Test system: not listed separately
# Assay: Cytotoxicity against mouse J774.1 cells after 48 hrs
# Type: cell-based
# Details: read-out: ED50
row,SMILES,CC50 at 48 h [µM]
1,C[C@@H]1CC2(C[C@H](C)N1)C(=O)NC(=O)N2c1ccccc1 (stereo partly specified),> 100
2,COC(=O)C1C(=O)C(C(=O)OC)[C@H](c2ccccn2)N(CCCO)[C@@H]1c1ccccn1 (stereo partly specified),32
3,CC[C@@H]1CC2(C[C@H](CC)N1)C(=O)N(CCc1ccccc1)C(=O)N2c1ccccc1 (stereo partly specified),32.3
4,C[C@@H]1CC2(C[C@H](C)N1)C(=O)N(CCO)C(=O)N2Cc1ccccc1 (stereo partly specified),> 100
5,Cl.Clc1cccc(Cl)c1CO/N=C/C1CCN(CCCc2ccccc2)CC1,28.4
6,COC(=O)C1C(=O)C(C(=O)OC)[C@H](c2ccccn2)N(CCCC(=O)O)[C@@H]1c1ccccn1 (stereo partly specified),46
7,COC(=O)C1C(=O)C(C(=O)OC)[C@H](c2cccc([N+](=O)[O-])c2)N(Cc2ccccc2)[C@@H]1c1cccc([N+](=O)[O-])c1 (stereo partly specified),> 100
8,CC[C@@H]1CC2(C[C@H](CC)N1Cc1ccccc1)C(=O)NC(=O)N2c1ccccc1 (stereo partly specified),> 100
9,C=CCN1[C@@H](c2ccccn2)C(C(=O)OC)=C(O)C[C@H]1c1ccccn1,35

# Test system: Plasmodium falciparum
# Assay: Antiplasmodial activity against chloroquine-sensitive Plasmodium falciparum
# Type: functional, organism-based
# Details: not given
row,IC50,SMILES
1,Not Active,CC[C@@H]1CC2(C[C@H](CC)N1)C(=O)N(Cc1ccccc1)C(=O)N2c1ccccc1 (stereo partly specified)
2,Not Active,C[C@@H]1CC2(C[C@H](C)N1)C(=O)NC(=O)N2c1ccccc1 (stereo partly specified)
3,Not Active,COC(=O)C1C(=O)C(C(=O)OC)[C@H](c2ccccn2)N(CCCO)[C@@H]1c1ccccn1 (stereo partly specified)
4,Not Active,CC[C@@H]1CC2(C[C@H](CC)N1)C(=O)N(CCc1ccccc1)C(=O)N2c1ccccc1 (stereo partly specified)
5,Not Active,C[C@@H]1CC2(C[C@H](C)N1)C(=O)N(CCO)C(=O)N2Cc1ccccc1 (stereo partly specified)
6,Not Active,COC(=O)C1C(=O)C(C(=O)OC)[C@H](c2ccccn2)N(CCCC(=O)O)[C@@H]1c1ccccn1 (stereo partly specified)
7,Not Active,CC[C@@H]1CC2(C[C@H](CC)N1Cc1ccccc1)C(=O)NC(=O)N2c1ccccc1 (stereo partly specified)

row,SMILES,IC50
1,COC(=O)C1C(=O)C(C(=O)OC)[C@H](c2cccc([N+](=O)[O-])c2)N(Cc2ccccc2)[C@@H]1c1cccc([N+](=O)[O-])c1 (stereo partly specified),Not Active
